Test results published in PubChem BioAssay AID2060606 (Molecular Pharmacology Branch, DTP, NCI, 2025).

Test system: 922993-354-T-J3-PDC complex spheroids, viability, % test/control
Assay: Anticancer human tumor 922993-354-T-J3-PDC patient-derived endometrial carcinoma cell line growth inhibition [CLK]
Conditions: for IC50: curve of first compound; for viability, T/C: stronger effect = lower value
Outline: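 Patient-derived tumor cells grown as complex spheroids with HUVEC endothelial cells and mesenchymal stem cells, treated with drug combinations. Concentrations descend in half-log steps from near clinical Cmax, or from 10 microM if Cmax unknown.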
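Also: spheroids exposed to the agents for 7 days before readout.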

CC(C)CC(NC(=O)C(Cc1ccccc1)NC(=O)c1cnccn1)B(O)O (configuration not stated) + CN1CCN(c2cc(C(=O)Nc3cc4cc(-c5cnn(C)c5)ccc4cn3)ccn2)CC1
IC50 (second compound 0.0316 µM): 6.51 nM | IC50 (second compound 0.1 µM): 6.63 nM | IC50 (second compound 0.316 µM): < 0.949 nM | IC50 (second compound 1 µM): < 0.949 nM | IC50 (second compound 3.16 µM): < 0.949 nM | IC50 (second compound 10 µM): < 0.949 nM | viability, T/C (second compound 0.0316 µM, first compound 0.000949 µM): 103% | viability, T/C (second compound 0.0316 µM, first compound 0.003 µM): 85.5% | viability, T/C (second compound 0.0316 µM, first compound 0.00949 µM): 32.6% | viability, T/C (second compound 0.0316 µM, first compound 0.03 µM): 6.15% | viability, T/C (second compound 0.0316 µM, first compound 0.0949 µM): 1.44% | viability, T/C (second compound 0.0316 µM, first compound 0.3 µM): 1.26% | viability, T/C (second compound 0.1 µM, first compound 0.000949 µM): 94.7% | viability, T/C (second compound 0.1 µM, first compound 0.003 µM): 74.5% | viability, T/C (second compound 0.1 µM, first compound 0.00949 µM): 40.2% | viability, T/C (second compound 0.1 µM, first compound 0.03 µM): 8.34% | viability, T/C (second compound 0.1 µM, first compound 0.0949 µM): 1.08% | viability, T/C (second compound 0.1 µM, first compound 0.3 µM): 1.56% | viability, T/C (second compound 0.316 µM, first compound 0.000949 µM): 50.3% | viability, T/C (second compound 0.316 µM, first compound 0.003 µM): 28.6% | viability, T/C (second compound 0.316 µM, first compound 0.00949 µM): 20.6% | viability, T/C (second compound 0.316 µM, first compound 0.03 µM): 6.46% | viability, T/C (second compound 0.316 µM, first compound 0.0949 µM): 1.39% | viability, T/C (second compound 0.316 µM, first compound 0.3 µM): 0.48% | viability, T/C (second compound 1 µM, first compound 0.000949 µM): 0.16% | viability, T/C (second compound 1 µM, first compound 0.003 µM): 1.6% | viability, T/C (second compound 1 µM, first compound 0.00949 µM): 0.98% | viability, T/C (second compound 1 µM, first compound 0.03 µM): 0.44% | viability, T/C (second compound 1 µM, first compound 0.0949 µM): 0.08% | viability, T/C (second compound 1 µM, first compound 0.3 µM): 0.48% | viability, T/C (second compound 3.16 µM, first compound 0.000949 µM): 0.1% | viability, T/C (second compound 3.16 µM, first compound 0.003 µM): 0.68% | viability, T/C (second compound 3.16 µM, first compound 0.00949 µM): 1% | viability, T/C (second compound 3.16 µM, first compound 0.03 µM): 0.07% | viability, T/C (second compound 3.16 µM, first compound 0.0949 µM): 0.83% | viability, T/C (second compound 3.16 µM, first compound 0.3 µM): 0.79% | viability, T/C (second compound 10 µM, first compound 0.000949 µM): 0.08% | viability, T/C (second compound 10 µM, first compound 0.003 µM): 1.39% | viability, T/C (second compound 10 µM, first compound 0.00949 µM): 0.12% | viability, T/C (second compound 10 µM, first compound 0.03 µM): 0.16% | viability, T/C (second compound 10 µM, first compound 0.0949 µM): 2.52% | viability, T/C (second compound 10 µM, first compound 0.3 µM): 2.16%
